{"source": "patent US12258425B2", "about": "“Peptide compositions and methods of use” (priority 2015, dated 2025)", "key": {"[1]": {"test": "pH-solubility titration (visual: precipitate, turbidity, viscosity, gel)", "format": "physicochemical", "method": "Compound 1 obtained as a trihydrochloride salt, as described in Example 1, and was screened for aqueous solubility at different pHs, by carrying out pH titrations according to the following protocol. In some cases Met-12 was run through an identical experimental procedure to determine its solubility pH profile under the same conditions.\nCompound 1 (10 mg) was dissolved in water (270-900 ? L) in a 2 mL clear plastic centrifuge tube with vortexing to give a pH ˜2.4 solution. […] This solution was then diluted with the appropriate amount of cosolvent or other excipient (sugar, surfactant etc.) to produce a clear acidic solution of 10 mg of Compound 1 in […] of the test solution at room temperature ([…]). Small aliquots of a basic solution (usually sodium hydroxide 1.0 M or 0.1 M, but sometimes other bases when investigating buffers) were added using a microliter syringe. Between additions the solution was mixed by vortexing, and the solution was inspected visually for precipitates of various types, turbidity, as a likely sign of microprecipitates, and viscosity to detect gel formation. pH measurements were taken at all these observation points. Some experiments titrated from the endogenous low pH to pH 10, but later titrations were not carried much above pH 7, or sometimes even lower."}, "[2]": {"system": "photoreceptor cells in the detached portion of the retina", "test": "Rat retinal detachment model, TUNEL count of apoptotic cells", "format": "in vivo, rats", "settings": "for Cells positive for TUNEL in detached retina: Example 10, subretinal, three days", "method": "Briefly, rodents were anesthetized with a 50:50 mix of ketamine (100 mg/mL) and xylazine (20 mg/mL), and pupils were dilated with topical phenylephrine (2.5%) and tropicamide (1%). A 20-gauge microvitreoretinal blade (Walcott Scientific, Marmora, NJ) was used to create a sclerotomy 2 mm posterior to the limbus, carefully avoiding lens damage.\nUnder direct visualization through an operating microscope, a subretinal injector (Glaser, 32-gauge tip; BD Ophthalmic Systems, Sarasota, FL) was introduced through the sclerotomy into the vitreous cavity and then through a peripheral retinotomy into the subretinal space. Sodium hyaluronate (10 mg/mL) was slowly injected to detach the neurosensory retina from the underlying retinal pigment epithelium.\nIn all experiments, approximately one-third to one-half of the superonasal neurosensory retina was detached. In all animals, detachments were created in the same location to allow for direct comparison of retinal cell counts. Detachments were created in the left eye, leaving the right eye as the control. […]\nAfter three days rats were euthanized, retinas were excised, fixed, sectioned, and stained for TUNEL assays. Areas of detached retina were counted for number of apoptotic cells. Each experiment involved 4 fields from each of 4 sections obtained from 5 or 6 retinas for each dosing group."}, "[3]": {"system": "FasL-induced caspase 8 activation in 661W cells", "test": "Blockade of FasL-induced caspase 8 activation in 661W cells", "format": "cell-based", "settings": "for Concentration of maximal inhibition of FasL-induced caspase 8 activation / EC50: FasL 500 ng/mL, 48 hours; for EC50: trihydrochloride, unbuffered solution in DMSO, read-out: EC50, inhibition of FasL-induced caspase 8 activation", "text": "Cell Culture. The 661W photoreceptor cell line was generously provided by Muayyad Al-Ubaidi (Department of Cell Biology, University of Oklahoma Health Sciences Center, Oklahoma City, OK). The 661W cell line is a photoreceptor line that has been immortalized by the expression of SV40-T antigen under control of the human interphotoreceptor retinol-binding protein (IRBP) promoter (Al-Ubaidi et al.,J Cell Biol., 119(6):1681-1687 (1992), herein incorporated by reference in its entirety). 661W cells express cone photoreceptor markers, including blue and green cone pigments, transducin, and cone arrestin (Tan et al., Invest Ophtholmol Vis Sci., (3):764-768 (2004), herein incorporated by reference in its entirety), and can undergo caspase-mediated cell death (Kanan et al., Invest Ophthalmol Vis Sci., 48(1):40-51 (2007), herein incorporated by reference in its entirety).\nThe 661W cell line was maintained in Dulbecco's modified Eagle's medium containing 10% fetal bovine serum, 300 mg/L glutamine, 32 mg/L putrescine, 40 μL/L β-mercaptoethanol, 40 μg/L hydrocortisone 21-hemisuccinate, and 40 μg/L progesterone. The media also contained penicillin (90 U/mL) and streptomycin (0.09 mg/mL). Cells were grown at 37° C. in a humidified atmosphere of 5% CO2 and 95% air.\nActivity Assays. Caspase 3, caspase 8 and caspase 9 activities were measured with colorimetric tetrapeptide cleavage assay kits, per the manufacturer's instructions (BioVision, Mountain View, Calif). Total (661W/retinal) protein was extracted as per a previously published protocol (Zacks et al., IOVS, 44(3):1262-1267 (2003), herein incorporated by reference in its entirety). One hundred micrograms of total (661W/retinal) protein was incubated with caspase 3 (DEVD-pNA), caspase 8 (IETD-pNA) or caspase 9 substrates (LEHD-pNA) at 200 μM final concentration for 60 minutes. Absorbance was measured at 405 nm in a microplate reader (Spectra-MAX 190, Molecular Devices, Sunnyvale, Calif). As a negative control, (661W/retinal) protein was incubated with assay buffer without the tetrapeptide. A second negative control was used in which assay buffer alone was incubated with the tetrapeptide. As a positive control, purified caspase 3, caspase 8, or caspase 9 was incubated with the tetrapeptide alone.\n661W cells were treated with a FasL. […] Activity of caspase 8 measured in 661W cell lysates increased with increasing concentration of FasL, peaking with the 500 ng/ml dose. 661W cells were treated with 500 ng/ml FasL and measured activity levels at various time points.\nThe assay system described above was used as an in vitro screening system to find potential inhibitors of the Fas-induced Caspase 8 activation pathway. […] This activity is very dependent on the formulation in which the Met-12 peptide is delivered. The final formulation for Met-12 was diluted 1000-fold for this assay, and to get to the top of the dose curve, which is normally 100 μM, one uses lesser dilutions."}, "[4]": {"settings": "5 μg in 5 μL DMSO, trihydrochloride"}}, "note": "Structures can show the parent of a compound that is named as a salt. Where a SMILES comes first, the peptide text is derived from it.", "data": [{"compound": "CC[C@H](C)[C@H](NC(=O)[C@H](Cc1ccc(O)cc1)NC(=O)[C@H](CC(N)=O)NC(=O)[C@@H](NC(=O)[C@H](C)NC(=O)CNC(=O)[C@H](CC(C)C)NC(=O)[C@H](Cc1ccc(O)cc1)NC(=O)[C@@H](NC(=O)[C@H](Cc1cnc[nH]1)NC(=O)[C@@H](N)Cc1cnc[nH]1)[C@@H](C)CC)C(C)C)C(=O)N[C@@H](Cc1ccc(O)cc1)C(N)=O", "note": "[Compound 1 triacetate, His-His-Ile-Tyr-Leu-Gly-Ala-Val-Asn-Tyr-Ile-Tyr-NHz] (H-HHIYLGAVNYIY-NH2)", "values": [{"measurement": "Inherent pH of the salt", "setting": "[1]; 2 mg/mL in water", "value": "3.4-3.6 pH"}, {"measurement": "Apoptotic cells in detached retina", "setting": "[2]; Example 12, 1 μg in DMSO", "value": 1.2, "unit": "%"}]}, {"compound": "CC[C@H](C)[C@H](NC(=O)[C@H](Cc1ccc(O)cc1)NC(=O)[C@H](CC(N)=O)NC(=O)[C@@H](NC(=O)[C@H](C)NC(=O)CNC(=O)[C@H](CC(C)C)NC(=O)[C@H](Cc1ccc(O)cc1)NC(=O)[C@@H](NC(=O)[C@H](Cc1cnc[nH]1)NC(=O)[C@@H](N)Cc1cnc[nH]1)[C@@H](C)CC)C(C)C)C(=O)N[C@@H](Cc1ccc(O)cc1)C(N)=O", "note": "[Compound 1 trihydrochloride, His-His-Ile-Tyr-Leu-Gly-Ala-Val-Asn-Tyr-Ile-Tyr-NHz] (H-HHIYLGAVNYIY-NH2)", "values": [{"measurement": "Cells positive for TUNEL in detached retina", "setting": "[2]; 0.5 μg in DMSO", "value": 0.58, "unit": "%"}, {"measurement": "Cells positive for TUNEL in detached retina", "setting": "[2]; 1 μg in DMSO", "value": 1.14, "unit": "%"}, {"measurement": "Cells positive for TUNEL in detached retina", "setting": "[2]; [4]", "value": 0.82, "unit": "%"}, {"measurement": "Cells positive for TUNEL in detached retina", "setting": "[2]; 10 μg in DMSO", "value": 0.9, "unit": "%"}, {"measurement": "Apoptotic cells in detached retina", "setting": "[2]; Example 11, 1 μg in 2% propylene glycol, 2% poloxamer 407, pH 4", "value": 0.4, "unit": "%"}, {"measurement": "Apoptotic cells in detached retina", "setting": "[2]; Example 11, 1 μg in 3% propylene glycol, 3% PS-20, pH 4.0", "value": 0.01, "unit": "%"}, {"measurement": "Apoptotic cells in detached retina", "setting": "[2]; Example 11, 5 μg in 2% propylene glycol, 2% poloxamer 407, pH 4", "value": 0.3, "unit": "%"}, {"measurement": "Apoptotic cells in detached retina", "setting": "[2]; Example 11, 5 μg in 3% propylene glycol, 3% PS-20, pH 4.0", "value": 2.9, "unit": "%"}, {"measurement": "Apoptotic cells in detached retina", "setting": "[2]; Example 11, 5 μg in DMSO", "value": 2.5, "unit": "%"}, {"measurement": "Apoptotic cells in detached retina", "setting": "[2]; Example 12, 1 μg in DMSO", "value": 2.4, "unit": "%"}, {"measurement": "Most potent concentration (FIG. 3)", "setting": "[3]; 10 mg/mL in 1% PS-20, 3% PG, pH 4", "value": 3, "unit": "µM"}, {"measurement": "Dose potency and efficacy versus Met-12 or Compound 1 in DMSO (FIG. 2)", "setting": "[3]; 10 mg/mL in 2% Polysorbate 20 and 2% PG at pH 4", "value": "both considerably more dose potent, but also more efficacious"}, {"measurement": "Course of activity with concentration (FIG. 3)", "setting": "[3]; 10 mg/mL in 3% PS-20, 3% PG, pH 4, top dose 30", "value": "continued increase in activity"}, {"measurement": "Potency relative to Met-12 by 1C50", "setting": "[3]; 661W cells, both in DMSO", "value": 10, "unit": "fold"}, {"measurement": "Potency relative to Met-12 by concentration of maximal inhibition", "setting": "[3]; 661W cells, both in DMSO", "value": "approximately 3 fold"}, {"measurement": "Dose potency versus Met-12 (FIG. 2)", "setting": "[3]; DMSO (20 mg/mL)", "value": "somewhat more dose potent than Met-12"}, {"measurement": "Activity above 30 μM", "setting": "[3]; trihydrochloride in DMSO, U-shaped curve", "value": "almost inactive"}, {"measurement": "Concentration of maximal inhibition of FasL-induced caspase 8 activation", "setting": "[3]; trihydrochloride in DMSO", "value": 3, "unit": "µM"}, {"measurement": "EC50", "setting": "[3]", "value": 0.4, "unit": "µM"}]}, {"compound": "CC[C@H](C)[C@H](NC(=O)[C@H](Cc1ccc(O)cc1)NC(=O)[C@H](CC(N)=O)NC(=O)[C@@H](NC(=O)[C@H](C)NC(=O)CNC(=O)[C@H](CC(C)C)NC(=O)[C@H](Cc1ccc(O)cc1)NC(=O)[C@@H](NC(=O)[C@H](Cc1c[nH]cn1)NC(=O)[C@@H](N)Cc1c[nH]cn1)[C@@H](C)CC)C(C)C)C(=O)N[C@@H](Cc1ccc(O)cc1)C(=O)O", "note": "[Met-12, HHIYLGAVNYIY, reference compound] (H-HHIYLGAVNYIY-OH; N-terminus assumed)", "values": [{"measurement": "Aqueous solubility (in words)", "setting": "[1]", "value": "extremely poor aqueous solubility"}, {"measurement": "pH of onset of gelling", "setting": "[1]; 70% Propylene glycol", "value": 3.2, "unit": "pH"}, {"measurement": "pH to which a clear mobile solution persists", "setting": "[1]; aqueous solution titrated with sodium hydroxide", "value": 3.0, "unit": "pH"}, {"measurement": "Cells positive for TUNEL in detached retina", "setting": "[2]; [4]", "value": "over 1%"}, {"measurement": "Loss in activity of a non-solution formulation", "setting": "[3]; 10 mg/mL in 20 mM citrate buffer pH 2.8, in vitro and in vivo assays", "value": "at least a fivefold loss in activity"}, {"measurement": "Caspase 8 activation remaining relative to baseline", "setting": "[3]; Met-12 trihydrochloride at 10 μM, depending on the assay", "value": "0-25%"}, {"measurement": "Dose at which maximum inhibition is achieved", "setting": "[3]; aqueous based formulations", "value": "50 to 100", "unit": "µM"}, {"measurement": "Concentration of maximal inhibition of FasL-induced caspase 8 activation", "setting": "[3]; trihydrochloride in DMSO", "value": 10, "unit": "µM"}, {"measurement": "EC50", "setting": "[3]", "value": 4, "unit": "µM"}]}]}
